Assay results published in publication PMC5522996, “Big conductance calcium‐activated potassium channel openers control spasticity without sedation” (British Journal of Pharmacology, 2017).
Read-outs that look alike come from different tables or passages of the source.

Legend:
GPR55‐deficient ABH mice = assay: Spasticity in GPR55‐deficient mice; format: in vivo, mouse; conditions: 10 mg·kg^−1 i.v.
CB1 = target: T1, CB1 (Homo sapiens, UniProt P21554); assay: Receptor binding profile of VSN16R
T1 construct: purchased Cerep; Chantest; DiscoveRx; Multispan; MDS Pharma Services

[1] = Stability in pooled mouse plasma; format: in vitro ADME; conditions: 37°C, upper limit 100 min, read-out: t ½ in plasma
Protocol: (§1) The stability of compounds when subjected to hepatic and plasma degradation was assessed in vitro by Inpharmatica, Cambridge, UK. Compounds (1 μM) were incubated with either pooled mouse liver microsomes (0.1 mg protein mL^−1) or pooled mouse plasma at 37°C for 0, 5, 10, 20 and 40 min before termination with acetonitrile containing warfarin as an analytical internal standard. Samples were centrifuged, and the resultant supernatant analysed for parent compound. The mass responses at baseline were taken as the 100% reference values against which the disappearance of the compound was measured. The natural log of the % remaining values was used to generate linear plots of disappearance of the compounds. Half‐life values were calculated from the slope of these plots. Hepatocyte metabolism was assessed by Cyprotex, Macclesfield, and 10 μM VSN16R was incubated with primary mouse, rat, monkey (Macaque) and human hepatocytes for 1 h, and the presence of metabolites was assessed using liquid […] mass spectroscopy. The stability of VSN16R was assessed in vivo by Inpharmatica, Cyprotex and Charles Rivers, Cambridge. Blood (plasma) samples were obtained prior to and 5 min to 24 h after drug administration of 2–5 mg·kg^−1 i.v. or 5 mg·kg^−1 p.o. VSN16R into outbred mice and rats (n = 3 per time point). […] Data are expressed as mean ± SEM. […]

WP2uvvA = assay: Bacterial reverse mutation, revertants per plate; format: cell-based, Escherichia coli
Protocol: Strain of Organism Treatment Dose Revertants per plate
First Mutation without Metabolic Stimulation
Second Mutation without Metabolic Stimulation
VSN16R was incubated at various concentrations with either TA1535, TA1537, TA98 and TA100 strains of Salmonella typhimurium, which carry mutations in genes involved in histidine synthesis, and WP2uvvA Escherichia coli. The bacteria are spread on agar plates with limiting histidine content and incubated for 48 h. The number of histidine gene negative to positive revertants was assessed in two experiments. The results represent the mean ± SD. n=3/group. This was performed by Charles

CYP450 2A6 = CYP450 2A6 (Homo sapiens, UniProt P11509); assay: CYP450 inhibition of substrate binding
Excerpt: IC50 Inhibition of substrate binding
Inhibition of binding of either 3-cyano-7-ethoxycoumarin, dibenzylfluorescein or 7-benzyoxy-4-
(trifluoromethyl) coumarin in human enzyme transfected BTI NN-5B1-4 cells or Sf9 insect cells or
inhibition of dextromethorphan substrate to CYP450 2D6 in liver microsomes.

EDG3 = target: T2, EDG3 (Homo sapiens, UniProt Q99500); assay: Receptor binding profile of VSN16R; conditions: 10µM VSN16R
T2 construct: purchased Cerep; Chantest; DiscoveRx; Multispan; MDS Pharma Services

sst(non-selective) = assay: Receptor binding profile of VSN16R; parameters: species or system human; conditions: 10µM VSN16R
5-HT1A = target: T3, 5-HT1A (Homo sapiens, UniProt P08908); assay: Receptor binding profile of VSN16R; conditions: 10µM VSN16R
T3 construct: purchased Cerep; Chantest; DiscoveRx; Multispan; MDS Pharma Services

κ = target: T4, κ (Homo sapiens, UniProt P41145); assay: Receptor binding profile of VSN16R; conditions: 10µM VSN16R
T4 construct: purchased Cerep; Chantest; DiscoveRx; Multispan; MDS Pharma Services

EDG5 = target: T5, EDG5 (Homo sapiens, UniProt O95136); assay: Receptor binding profile of VSN16R; conditions: 10µM VSN16R
T5 construct: purchased Cerep; Chantest; DiscoveRx; Multispan; MDS Pharma Services

A3 = target: T6, A3 (Homo sapiens, UniProt P0DMS8); assay: Receptor binding profile of VSN16R; conditions: 10µM VSN16R
T6 construct: purchased Cerep; Chantest; DiscoveRx; Multispan; MDS Pharma Services

Y2 = target: T7, Y2 (Homo sapiens, UniProt P49146); assay: Receptor binding profile of VSN16R; conditions: 10µM VSN16R
T7 construct: purchased Cerep; Chantest; DiscoveRx; Multispan; MDS Pharma Services

[2] = Plasma levels in toxicological studies, rats; format: in vivo; conditions: both sexes, Sprague Dawley, rat, po; for concentration at 30 min: 30 min following 50 mg·kg^−1 p.o.
Protocol: Twenty‐eight day toxicology in rats and dogs for Investigational New Drug filing was performed by Charles Rivers (UK). Reproductive toxicology in rabbits was performed by Charles Rivers (Canada). Pharmacokinetic and/or toxicological doses ranged from 5 to 1000 mg·kg^−1 p.o. in Sprague Dawley male and female rats (n = 6‐26 per group), 50–200 mg·kg^−1 p.o. in male and female Beagle dogs (n = 6 per group) and 100–750 mg·kg^−1 p.o. in female New Zealand white rabbits (n = 9 per group). Results are expressed as mean ± SD.
as §1, with “point). In addition, plasma, brain and spinal cord samples were obtained from ABH with spastic EAE. Immediately after blood collection, the brain and spinal cord were removed and then stored at −20°C prior to assay.” for “point).”

EDG7 = target: T8, EDG7 (Homo sapiens, UniProt Q9UBY5); assay: Receptor binding profile of VSN16R; conditions: 10µM VSN16R
T8 construct: purchased Cerep; Chantest; DiscoveRx; Multispan; MDS Pharma Services

M2 = target: T9, M2 (Homo sapiens, UniProt P08172); assay: Receptor binding profile of VSN16R; conditions: 10µM VSN16R
T9 construct: purchased Cerep; Chantest; DiscoveRx; Multispan; MDS Pharma Services

BZD = assay: Receptor binding profile of VSN16R; parameters: species or system human; conditions: 10µM VSN16R
A1 = target: T10, A1 (Homo sapiens, UniProt P30542); assay: Receptor binding profile of VSN16R; conditions: 10µM VSN16R
T10 construct: purchased Cerep; Chantest; DiscoveRx; Multispan; MDS Pharma Services
T10 sequence (P30542 whole entry): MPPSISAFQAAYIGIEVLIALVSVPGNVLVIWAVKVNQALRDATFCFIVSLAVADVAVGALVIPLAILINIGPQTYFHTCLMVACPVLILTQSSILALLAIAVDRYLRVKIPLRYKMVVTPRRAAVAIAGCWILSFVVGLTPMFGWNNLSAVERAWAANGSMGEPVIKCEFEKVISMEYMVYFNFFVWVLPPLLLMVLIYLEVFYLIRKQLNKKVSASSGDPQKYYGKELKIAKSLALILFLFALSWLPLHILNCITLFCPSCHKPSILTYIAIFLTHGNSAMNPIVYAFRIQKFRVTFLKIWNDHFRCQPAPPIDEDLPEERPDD

T1 sequence (P21554 whole entry): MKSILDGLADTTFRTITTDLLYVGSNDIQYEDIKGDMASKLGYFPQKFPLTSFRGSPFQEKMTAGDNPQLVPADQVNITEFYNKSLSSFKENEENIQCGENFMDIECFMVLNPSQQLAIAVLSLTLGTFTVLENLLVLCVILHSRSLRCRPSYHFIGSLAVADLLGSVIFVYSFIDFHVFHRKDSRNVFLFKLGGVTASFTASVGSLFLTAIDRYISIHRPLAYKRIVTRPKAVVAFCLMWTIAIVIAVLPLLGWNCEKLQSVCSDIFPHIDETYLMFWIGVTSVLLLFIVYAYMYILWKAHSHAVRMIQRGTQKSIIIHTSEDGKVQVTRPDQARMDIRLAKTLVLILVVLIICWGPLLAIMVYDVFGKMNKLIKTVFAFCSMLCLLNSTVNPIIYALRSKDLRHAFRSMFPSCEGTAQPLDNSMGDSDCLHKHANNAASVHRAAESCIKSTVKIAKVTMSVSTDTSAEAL
T5 sequence (O95136 whole entry): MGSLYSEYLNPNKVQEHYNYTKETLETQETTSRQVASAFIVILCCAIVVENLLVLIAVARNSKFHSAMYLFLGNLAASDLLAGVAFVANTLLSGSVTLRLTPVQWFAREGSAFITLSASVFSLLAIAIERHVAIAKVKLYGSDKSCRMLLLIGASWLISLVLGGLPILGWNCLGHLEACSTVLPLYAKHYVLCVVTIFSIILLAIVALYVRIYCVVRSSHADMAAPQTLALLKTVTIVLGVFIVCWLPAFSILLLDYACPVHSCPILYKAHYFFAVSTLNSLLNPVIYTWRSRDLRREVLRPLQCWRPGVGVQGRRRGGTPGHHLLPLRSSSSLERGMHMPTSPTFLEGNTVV
T3 sequence (P08908 whole entry): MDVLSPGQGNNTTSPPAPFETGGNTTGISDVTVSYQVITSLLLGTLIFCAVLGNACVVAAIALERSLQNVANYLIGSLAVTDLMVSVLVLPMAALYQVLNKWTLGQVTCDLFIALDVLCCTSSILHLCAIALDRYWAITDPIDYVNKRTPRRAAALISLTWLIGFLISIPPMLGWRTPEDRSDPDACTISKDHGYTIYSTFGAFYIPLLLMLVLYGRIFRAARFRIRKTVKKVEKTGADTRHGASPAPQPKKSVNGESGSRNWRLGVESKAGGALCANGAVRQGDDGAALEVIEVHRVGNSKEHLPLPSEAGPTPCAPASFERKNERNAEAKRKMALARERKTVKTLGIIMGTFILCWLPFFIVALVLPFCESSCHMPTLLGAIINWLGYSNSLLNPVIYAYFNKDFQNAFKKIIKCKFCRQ
T9 sequence (P08172 whole entry): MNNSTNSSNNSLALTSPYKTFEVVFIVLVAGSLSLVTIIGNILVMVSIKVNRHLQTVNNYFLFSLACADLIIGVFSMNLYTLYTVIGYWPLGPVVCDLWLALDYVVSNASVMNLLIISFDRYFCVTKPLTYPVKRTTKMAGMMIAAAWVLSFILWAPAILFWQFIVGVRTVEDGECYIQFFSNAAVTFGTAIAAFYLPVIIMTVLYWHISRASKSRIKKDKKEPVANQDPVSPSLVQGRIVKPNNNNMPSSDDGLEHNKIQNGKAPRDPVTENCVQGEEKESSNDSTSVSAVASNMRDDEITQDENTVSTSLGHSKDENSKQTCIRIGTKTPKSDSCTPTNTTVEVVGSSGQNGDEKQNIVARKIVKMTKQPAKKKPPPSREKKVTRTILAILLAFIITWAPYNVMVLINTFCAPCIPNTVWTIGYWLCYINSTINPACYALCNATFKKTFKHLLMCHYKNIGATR
T2 sequence (Q99500 whole entry): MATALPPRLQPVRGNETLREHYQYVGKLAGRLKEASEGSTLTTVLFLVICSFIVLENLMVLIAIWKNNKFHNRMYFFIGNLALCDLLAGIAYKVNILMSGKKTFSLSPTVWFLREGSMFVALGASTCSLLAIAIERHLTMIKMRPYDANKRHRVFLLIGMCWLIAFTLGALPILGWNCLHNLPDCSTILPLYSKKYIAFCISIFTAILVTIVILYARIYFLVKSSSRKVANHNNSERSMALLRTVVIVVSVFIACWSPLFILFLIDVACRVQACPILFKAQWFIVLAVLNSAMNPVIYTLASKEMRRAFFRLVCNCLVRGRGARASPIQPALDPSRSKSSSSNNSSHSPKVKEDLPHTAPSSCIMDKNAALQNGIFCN
Chain of CYP450 2A6 (P11509 whole entry): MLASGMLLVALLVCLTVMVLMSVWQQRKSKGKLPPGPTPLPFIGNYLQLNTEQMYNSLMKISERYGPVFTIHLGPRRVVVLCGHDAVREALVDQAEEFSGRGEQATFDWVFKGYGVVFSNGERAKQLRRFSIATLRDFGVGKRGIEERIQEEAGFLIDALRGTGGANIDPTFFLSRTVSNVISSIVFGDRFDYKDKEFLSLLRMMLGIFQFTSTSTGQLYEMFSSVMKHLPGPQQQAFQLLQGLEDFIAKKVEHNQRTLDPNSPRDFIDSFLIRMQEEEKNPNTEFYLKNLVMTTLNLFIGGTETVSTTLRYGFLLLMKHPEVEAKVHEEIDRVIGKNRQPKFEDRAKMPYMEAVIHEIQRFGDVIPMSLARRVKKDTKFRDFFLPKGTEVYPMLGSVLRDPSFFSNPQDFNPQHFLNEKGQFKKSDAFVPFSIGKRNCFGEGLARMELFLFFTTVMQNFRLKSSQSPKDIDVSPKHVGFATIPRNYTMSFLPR
T6 sequence (P0DMS8 whole entry): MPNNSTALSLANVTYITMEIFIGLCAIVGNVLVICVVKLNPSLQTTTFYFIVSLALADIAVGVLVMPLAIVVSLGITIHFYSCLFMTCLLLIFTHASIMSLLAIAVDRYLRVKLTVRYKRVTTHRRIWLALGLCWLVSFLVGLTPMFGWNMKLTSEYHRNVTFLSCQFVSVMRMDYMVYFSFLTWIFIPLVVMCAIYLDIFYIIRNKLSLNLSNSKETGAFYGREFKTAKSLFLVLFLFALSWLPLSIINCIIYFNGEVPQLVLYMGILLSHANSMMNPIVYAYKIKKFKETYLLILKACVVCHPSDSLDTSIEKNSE
T8 sequence (Q9UBY5 whole entry): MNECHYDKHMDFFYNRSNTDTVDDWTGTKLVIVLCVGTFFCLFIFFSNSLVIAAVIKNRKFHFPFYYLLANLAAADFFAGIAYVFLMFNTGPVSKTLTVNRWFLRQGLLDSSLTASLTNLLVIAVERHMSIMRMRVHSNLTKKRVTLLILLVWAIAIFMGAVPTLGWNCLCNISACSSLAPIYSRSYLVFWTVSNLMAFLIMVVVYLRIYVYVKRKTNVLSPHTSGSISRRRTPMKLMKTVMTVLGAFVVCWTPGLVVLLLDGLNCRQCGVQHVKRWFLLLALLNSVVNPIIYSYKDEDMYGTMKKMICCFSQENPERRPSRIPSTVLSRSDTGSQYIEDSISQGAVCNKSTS
T7 sequence (P49146 whole entry): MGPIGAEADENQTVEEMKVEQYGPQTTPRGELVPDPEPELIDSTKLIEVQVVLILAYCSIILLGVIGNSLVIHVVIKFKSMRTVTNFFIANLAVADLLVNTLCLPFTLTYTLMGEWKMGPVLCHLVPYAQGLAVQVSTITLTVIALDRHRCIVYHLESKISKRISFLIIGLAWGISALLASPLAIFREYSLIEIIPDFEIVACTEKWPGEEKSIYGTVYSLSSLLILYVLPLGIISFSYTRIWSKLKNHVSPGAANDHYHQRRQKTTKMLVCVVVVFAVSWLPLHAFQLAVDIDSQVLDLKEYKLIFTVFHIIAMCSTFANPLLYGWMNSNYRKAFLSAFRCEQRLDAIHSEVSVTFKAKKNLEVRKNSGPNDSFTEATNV
T4 sequence (P41145 whole entry): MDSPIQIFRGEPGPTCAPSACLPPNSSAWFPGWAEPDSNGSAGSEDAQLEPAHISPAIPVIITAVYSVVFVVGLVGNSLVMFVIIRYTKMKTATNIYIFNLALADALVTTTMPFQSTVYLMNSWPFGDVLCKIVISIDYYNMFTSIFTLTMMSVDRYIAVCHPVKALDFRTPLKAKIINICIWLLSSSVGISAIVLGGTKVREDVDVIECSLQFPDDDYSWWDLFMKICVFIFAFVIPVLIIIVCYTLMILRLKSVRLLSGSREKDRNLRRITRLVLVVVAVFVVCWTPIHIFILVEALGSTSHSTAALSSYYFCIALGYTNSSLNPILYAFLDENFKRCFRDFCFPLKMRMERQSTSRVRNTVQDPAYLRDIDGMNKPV

SMILES: C[C@H](CO)NC(=O)c1cccc(/C=C\CCCC(=O)N(C)C)c1 [VSN16R]
- Inhibition of spasticity (GPR55‐deficient ABH mice): continued to inhibit spasticity
- Activity (CB1; 10µM VSN16R): Negligible Activity
- Binding or agonism at CB1 receptors (CB1; receptor‐transfected cell line‐based assays): does not bind to or agonize
- half-life at 1 μM [1]: > 1.67 h
- Revertants per plate (WP2uvvA; First Mutation without Metabolic Stimulation, 17µg): 5.3 ± 0.6
- Revertants per plate (WP2uvvA; First Mutation without Metabolic Stimulation, 5000µg): 1.3 ± 1.2
- Revertants per plate (WP2uvvA; Second Mutation without Metabolic Stimulation, 17µg): 10.3 ± 6.7
- Revertants per plate (WP2uvvA; Second Mutation without Metabolic Stimulation, 5000µg): 8.0 ± 4.6
- IC50 (CYP450 2A6): > 10 µM
- Activity (EDG3): Negligible Activity
- Activity (sst(non-selective)): Negligible Activity
- Activity (5-HT1A): Negligible Activity
- Activity (κ): Negligible Activity
- Activity (EDG5): Negligible Activity
- Activity (A3): Negligible Activity
- Activity (Y2): Negligible Activity
- Cmax ([2]; 1000 mg·kg^−1 p.o., read-out: Plasma level at Cmax): ≤ 368 µM
- concentration at 30 min ([2]; read-out: VSN16R detected in plasma): 15 µM
- concentration at 30 min ([2]; read-out: VSN16R detected in plasma (Mean ± SD)): 4907 ± 32.3 ng/mL
- Activity (EDG7): Negligible Activity
- Activity (M2): Negligible Activity
- Activity (BZD): Negligible Activity
- Activity (A1): Negligible Activity
